Test results reported in patent US9403845B2, “Pesticidally active pyridyl- and pyrimidyl- substituted pyrazole derivatives” (Syngenta Participations AG, priority 2012, dated 2016).

Experiments:
[1] = test system: Myzus persicae (Green Peach Aphid); assay: Activity against Myzus persicae (green peach aphid), mixed population, feeding/residual contact activity, preventive; format: in vivo; details: foliar, 144 h, sprayed sunflower leaf discs, aphid population of mixed ages, 6 days incubation
Excerpt: Activity Against Myzus persicae (Green Peach Aphid)
(Mixed Population, Feeding/Residual Contact Activity, Preventive)

[2] = test system: Bemisia tabaci (Cotton White Fly); assay: Activity against Bemisia tabaci (cotton white fly), feeding/residual contact activity, preventive; format: in vivo; details: foliar, 144 h, sprayed cotton leaf discs, 12 to 18 adults, 6 days after infestation, read-out: activity (mortality and special effects)
Procedure: Activity Against Bemisia tabaci (Cotton White Fly)
(Feeding/Residual Contact Activity, Preventive)
Cotton leaf discs were placed on agar in a 24-well microtiter plate and sprayed with test solutions. After drying, the leaf discs were infested with 12 to 18 adults. After an incubation period of 6 days after infestation, samples were checked for mortality and special effects (e.g. phytotoxicity).

Q: Which results are given for CO/N=C1\CCOc2ccc(-c3cnn(-c4cccnc4)c3)nc21 [Compound 1.008, N-methoxy-6-[1-(3-pyridyl)pyrazol-4-yl]-2,3-dihydropyrano[3,2-b]pyridin-4-imine]?
A: mortality at 200 ppm [1]: > 80%; mortality at 200 ppm [2]: > 80%

Q: For CC(=O)N/N=C1\CCCc2ccc(-c3cnn(-c4cccnc4)c3)nc21 [Compound 6.007, acetic acid [2-(1-pyridin-3-yl-1H-pyrazol-4-yl)-6,7-dihydro-5H-quinolin-ylidene]-hydrazide], which mortality at 200 ppm [1] is on record?
A: The mortality at 200 ppm was over 80%.

Q: Which results are given for CON=C1c2nc(-c3cnn(-c4cccnc4)c3)ccc2N(C)S(=O)(=O)C1(C)C (single isomer, unassigned) [Compound 8.004, N-methoxy-1,3,3-trimethyl-2,2-dioxo-6-[1-(3-pyridyl)pyrazol-4-yl]pyrido[3,2-c]thiazin-4-imine]?
A: mortality at 200 ppm [1]: > 80%; mortality at 200 ppm [2]: > 80%

Q: With O=C1CCOc2ccc(-c3cnn(-c4cccnc4)c3)nc21 [Compound 7.004, 6-[1-(3-pyridyl)pyrazol-4-yl]-2,3-dihydropyrano[3,2-b]pyridin-4-one] as the compound, how does the mortality at 200 ppm [1] read?
A: The mortality at 200 ppm was over 80%.

Q: And the mortality at 200 ppm [2]?
A: The mortality at 200 ppm was over 80%.

Q: Which melting point does the source give for CC(C)O/N=C1\CCCc2ccc(-c3cnn(-c4cccnc4)c3)nc21 (single isomer, unassigned) [Compound 1.005, 2-(1-pyridin-3-yl-1H-pyrazol-4-yl)-6,7-dihydro-5H-quinolin-8-one O-isopropyl-oxime] here?
A: The melting point was 128 to 130 °C.

Q: Which mortality at 200 ppm [1] does the source give for CC1CCc2ccc(-c3cnn(-c4cccnc4)c3)nc2C1=O (stereo not shown) [Compound 9.003] here?
A: The mortality at 200 ppm was over 80%.

Q: And the mortality at 200 ppm [2]?
A: The mortality at 200 ppm was over 80%.

Q: With CCO/N=C1\CS(=O)(=O)N(C)c2ccc(-c3cnn(-c4cccnc4)c3)nc21 [Compound 8.003, N-ethoxy-2-hydroxy-1-methyl-2-oxo-6-[1-(3-pyridyl)pyrazol-4-yl]pyrido[3,2-c]thiazin-4-imine] as the compound, how does the mortality at 200 ppm [1] read?
A: Its mortality at 200 ppm is over 80%.

Q: What about the mortality at 200 ppm [2] of the same compound?
A: The mortality at 200 ppm was over 80%.

Q: Which melting point does the source give for Cn1c(=O)c2c(nc(-c3cnn(-c4cccnc4)c3)n2C)n(C)c1=O [Compound 9.002] here?
A: The melting point was over 300 °C.

Q: For O=C1CCCc2ccc(-c3cnn(-c4cccnc4)c3)nc21 [Compound 7.002, 2-(1-pyridin-3-yl-1H-pyrazol-4-yl)-6,7-dihydro-5H-quinolin-8-one], which mortality at 200 ppm [2] is on record?
A: Its mortality at 200 ppm is over 80%.

Q: Which mortality at 200 ppm [1] does the source give for CN1Cc2ccc(-c3cnn(-c4cccnc4)c3)nc2C1=O [Compound 9.001] here?
A: The mortality at 200 ppm was over 80%.

Q: Which mortality at 200 ppm [1] does the source give for CO/N=C1\CCCc2sc(-c3cnn(-c4cccnc4)c3)nc21 [Compound 3.002, N-methoxy-2-[1-(3-pyridyl)pyrazol-4-yl]-6,7-dihydro-5H-1,3-benzothiazol-4-imine] here?
A: Its mortality at 200 ppm is over 80%.
